Each structure is given as a SMILES string. Residues, ends and D or L forms follow the SMILES beside them.

The subject of this experiment is spleen cells of C3H/He mouse (23-26% albumin layer interface fraction). Nature of the experiment: Determination of theta antigen induction activity (procedure analogous to Komuro et al). The note with it: C3H/He mouse spleen cell fraction in RPMI-1640, incubated with peptide at 37° C. for 2 hours; lysis with anti(theta) serum and guinea-pig complement. The experiment is classed as cell-based. On the procedure:
The theta antigen induction activity of the nonapeptide (I) is assayed by a procedure analogous to the procedure described in the article of Komuro et al [The Lancet, i, 740-743 (1973)]. The spleen is enucleated from a C3H/He mouse, 2-3 months old, and minced in a tissue culture fluid (RPMI-1640). The resulting spleen cell suspension is fractionated by discontinuous density gradient centrifugation using 10 to 35% bovine serum albumin. The cells migrating to the 23-26% albumin layer interface are collected and resuspended in RPMI-1640. To this cell suspension is added the peptide, the activity of which is to be determined, at a varying concentration and the mixture is incubated at 37° C. for 2 hours. If the peptide added be active, fresh theta antigen will appear on the cell surface. Therefore, the count of such cells is taken by lysing with an outbred mouse anti(theta) serum and guinea-pig complement. The theta-antigen induction activity is computed by means of the following equation. Theta-antigen induction activity(%)=(A-B/A)×100 where A is the count of theta antigen-negative cells in the absence of the test peptide and B is the count of theta antigen-negative cells when the test peptide has been added.
In the case of `C[C@@H](NC(=O)[C@@H]1CCC(=O)N1)C(=O)N[C@@H](CCCCN)C(=O)N[C@@H](CO)C(=O)N[C@@H](CCC(N)=O)C(=O)NCC(=O)NCC(=O)N[C@@H](CO)C(=O)N[C@@H](CC(N)=O)C(=O)O` [Example 1, pGlu-(D)-Ala-Lys-Ser-Gln-Gly-Gly-Ser-Asn-OH] (HELM PEPTIDE1{[Glp].[dA].K.S.Q.G.G.S.N}$$$$V2.0), the “The concentration required for showing at least 10% theta antigen induction activity” value lay within 1 to 10 ng/mL.

As to `C[C@H](NC(=O)[C@@H]1CCC(=O)N1)C(=O)N[C@@H](CCCCN)C(=O)N[C@@H](CO)C(=O)N[C@@H](CCC(N)=O)C(=O)NCC(=O)N[C@H](C)C(=O)N[C@@H](CO)C(=O)N[C@@H](CC(N)=O)C(=O)O` [Example 3, pGlu-Ala-Lys-Ser-Gln-Gly-(D)-Ala-Ser-Asn-OH] (HELM PEPTIDE1{[Glp].A.K.S.Q.G.[dA].S.N}$$$$V2.0), the “The concentration required for showing at least 10% theta antigen induction activity” value was 1 to 10 ng/mL.

Turning to `C[C@H](NC(=O)[C@@H]1CCC(=O)N1)C(=O)N[C@@H](CCCCN)C(=O)N[C@@H](CO)C(=O)N[C@@H](CCC(N)=O)C(=O)N[C@H](C)C(=O)NCC(=O)N[C@@H](CO)C(=O)N[C@@H](CC(N)=O)C(=O)O` [Example 4, pGlu-Ala-Lys-Ser-Gln-(D)-Ala-Gly-Ser-Asn-OH] (HELM PEPTIDE1{[Glp].A.K.S.Q.[dA].G.S.N}$$$$V2.0), the “The concentration required for showing at least 10% theta antigen induction activity” value lay within 0.1 to 1 ng/mL.

For the origin of these results see US4229438A, “Nonapeptides” (Takeda Chemical Industries, Ltd., priority 1978, dated 1980).
